This is an account of results in patent US20210251883A1, “METHOD FOR PREPARING ENZYME-TREATED ZIZANIA LATIFOLIA TURCZ. EXTRACT HAVING INCREASED TRICIN CONTENT, AND COMPOSITION FOR WHITENING, WRINKLE REDUCTION, ANTI-INFLAMMATION, ANTI-ALLERGY AND MOISTURIZATION, PREPARED THEREBY” (BTC CORPORATION, priority 2018, published 2021).

Assay [1] deals with CCD-986sk fibroblast cells, human dermal fibroblasts (HDF). Kind of assay: procollagen type I C-peptide EIA, collagen synthesis in fibroblasts. Particulars: concentration series of single substance. The format is cell-based. The procedure: The anti-wrinkle effect of the Zizania latifolia Turcz. extract prepared in Preliminary Experiments 2 to 4 was confirmed. First, human-derived CCD-986sk fibroblast cells were distributed from Korea Culture Tissue Collection (KCTC, Korea), and human dermal fibroblasts (HDF) were distributed from Seorin Bio. In addition, CCD-986sk fibroblasts were subcultured 2 to 3 times in an incubator at 37° C. in the presence of 5% CO2 using IMDM medium (ATCC, ATCC 30-2005, USA) supplemented with 10% FBS and 1% antibiotics (penicillin/streptomycin) and used. […]
Second, procollagen and MMP families (MMP-1, 2, 3, 9, 13) are factors that are discharged to the outside of the cell culture solution, and the cell culture solution reacted with the sample was collected and used. […] (standard sample), procollagen type I C-peptide EIA kit manufactured by Takara was used, the quantification curve was measured using PIP to calculate the amount of collagen synthesis for each sample. In addition, by measuring the inhibitory ability of metalloproteinase-1 (MMP-1), MMP-2, MMP-3, MMP-9, and […], which are factors affecting wrinkles, Zizania latifolia Turcz. enzyme treatment (standard sample) and tricin were evaluated for wrinkle improvement effect. The inhibitory ability of MMP-1, 2, 3, 9, 13 was measured using a product manufactured by Abcam.

The next assay relates to B16-F0 cells. Put plainly: inhibition of melanin production in melanin cell line B16-F0 (α-MSH/IBMX stimulated). The format is cell-based, mouse. Conditions: concentration series of single substance. How it is done: The whitening effect of the Zizania latifolia Turcz. extract prepared in the above Preliminary Experiments 2 to 4 was confirmed. First, mouse-derived melanin cell line B16-F0 cells were distributed from the American Type Culture Collection (ATCC, USA), and using DMEM medium (ATCC, ATCC 30-2002, USA) to which 10% FBS and 1% antibiotics (penicillin/streptomycin) were added, the cells were subcultured 2 to 3 times in an incubator at 37° C. in the presence of 5% CO2 and used.
Second, the ability of the Zizania latifolia Turcz. extract and tricin to inhibit melanin production in the mouse-derived melanin cell line B16-F0 was measured. B16-F0 cells were dispensed into a 6-well plate at 5×10^5 cells/well and pre-cultured in a 5% CO2 incubator for 20 to 24 hours, and then each extract sample was treated and cultured for 48 hours. […]
The melanoma cells adhered to the surface of the 6-well plate were removed from the cultured cells, dispensed into a 1.5 mL tube, and centrifuged at 13,000 rpm for 10 minutes using a centrifuge maintained at 4° C. […] After reacting for 1 hour in an oven at 60° C., 100 μL was dispensed to each well in a 96-well plate and O.D was measured with an ELISA reader (405 nm). […]

The test system of a further assay is RAW264.7 cells. Put plainly: NO assay in lipopolysaccharide-induced macrophage cell line RAW264.7. The format is cell-based. Particulars: concentration series of single substance; versus LPS. The procedure:
The production of NO was confirmed through the NO assay, and the specific process was as follows: The macrophage cell line RAW264.7 was distributed from the Korea Cell Line Bank (KCLB, Seoul, Korea), and using DMEM medium (Welgene, Gyeongsan, Korea) to which 10% FBS and 1% antibiotics (penicillin/streptomycin) were added, the cells were subcultured 2 to 3 times in an incubator at 37° C. in the presence of 5% CO2 and used.
RAW264.7 cells were dispensed into a 96-well plate at […] and pre-cultured in a 5% CO2 incubator for 20 to 24 hours, and each extract sample was treated and cultured for 24 hours. […] After the reaction was completed, optical density (O.D) was measured with an ELISA reader at a wavelength of 540 nm. At this time, the measured O.D was expressed as a percentage (%) compared with the O.D value in the cells to which lipopolysaccharide was added.
Second, NO assay was performed to measure the anti-inflammatory effect of the Zizania latifolia Turcz. extract and tricin using RAW264.7. […] After the reaction was completed, optical density (O.D) was measured with an ELISA reader at a wavelength of 540 nm. At this time, the measured O.D was expressed as a percentage (%) compared with the O.D value in the cells to which lipopolysaccharide was added. […]

Another assay has as its system RBL-2H3 cells. Put plainly: β-hexosaminidase release in IgE/antigen-stimulated RBL-2H3 cells. Conditions: concentration series of single substance; versus DNP-HSA. The format is cell-based, rat. The procedure:
The anti-allergic efficacy of the Zizania latifolia Turcz. extract prepared in the above Preliminary Experiments 2 to 4 was confirmed. First, RBL-2H3 cells, a rat basophilic leukemia cell line, were purchased from Korea Cell Line Bank (KCLB, Seoul, Korea). RBL-2H3 cells were cultured in MEM (Gibco BRL, NY, USA) medium containing 10% FBS and 1% penicillin/streptomycin in an incubator at 37° C. and 5% CO2.
Second, the inhibitory effect of the extract on the release of β-hexosaminidase was confirmed in RBL-2H3 cells. RBL-2H3 cells were dispensed into a 24-well plate at 2×10^5 cells per well and stimulated with anti-DNP IgE (450 ng/mL) overnight at 37° C. […] Then, the reaction was stopped by immersing in an ice water bath for 10 minutes. 25 μL of the supernatant was transferred to a 96-well plate and 25 μL of 0.1 M citrate buffer (pH 4.5) in which the substrate (1 mM p-nitrophenyl-nacetyl-β-D-glucosaminide) is dissolved, was added and reacted at 37° C. for 1 hour. Thereafter, 200 μL of a stop solution (0.1 M Na2CO3/NaHCO3, pH 10.0) was added to stop the reaction, and the absorbance was measured at 405 nm using a microplate reader.

The test system of the next assay is SKH-1 hairless mouse. Kind of assay: UVB-irradiated wrinkle-induced SKH-1 hairless mouse animal experiment. The format is in vivo. The text has this:
The anti-wrinkle improvement and moisturizing effects were confirmed through animal experiments for the enzyme-treated extract of Zizania latifolia Turcz. prepared in the above Example 1. For the experiment, biochemical analysis equipment (Roche Ltd, Basel, Switzerland), glass teflon homogenizer (Chang shin scientific Co., Korea), microplate reader (Bio-TEK, USA), protein quantification equipment (Chemi-Doc; BIORAD, USA), a centrifuge (Hanil FLETA5, Korea), a water bath (Thermo minder taitec, Japan), and a deep freezer (Sanyo, Japan) were used. In addition, glass Teflon homogenizer (Daihan Scientific Group, Korea), UV-spectrophotometer (Shimadzu UV-1201, Japan), high-speed centrifuge (Hanil HMR-1610V, Korea), medical freezer (Sanyo, Japan)), a microplate reader (Bio-TEK), and protein quantification equipment (Chemi-Doc; BIORAD) were used. […]
First, the body weight of each animal was measured to observe the change in body weight. […]

With `COc1cc(-c2cc(=O)c3c(O)cc(O)cc3o2)cc(OC)c1O` [tricin, Tricin], the “collagen generation according to the concentration (FIG. 11)” value in assay [1] is on record as “increased in a concentration-dependent manner”. In the assay with B16-F0 cells, the “melanin generation according to the concentration (FIG. 9)” value is on record as “decreased in a concentration-dependent manner”. Moreover, the “NO generation according to the concentration (FIG. 7)” value in the assay with RAW264.7 cells is given as “decreased in a concentration-dependent manner”. The “β-hexosaminidase release rate according to the concentration (FIG. 13)” value in the assay with RBL-2H3 cells was “decreased in a concentration-dependent manner”. Also, in the assay with SKH-1 hairless mouse (T group, 0.3 mg/kg oral, 14 weeks, UVB, FIG. 16), the “moisture of the skin surface” value is listed as “maintained”. Moreover, in the assay on SKH-1 hairless mouse (group T, tricin 2 mg/kg as printed, until the 8th week of UVB irradiation), the “SILFLO microscopic observation of wrinkles versus group C” value was “wrinkles were relatively less formed compared to group C”.
